Values of other authors, collected in patent US6479068B1, “Therapeutic nutrient regimen for alleviating mucositis, stomatitis and cachexia in oncology patients” (Baxter International Inc., priority 2000, dated 2002).

Conditions: in vivo

SMILES: [Se] [Selenium, selenium]
- absorption: 50-100%
